{"source": "paper PMC4468036", "about": "(Bioorganic & medicinal chemistry, 2014)", "origin": "cited, not measured here", "key": {"δ receptor": {"target": "δ receptor", "conditions": "read-out: IC50 at δ receptor; selectivity of ML140"}, "μ receptor": {"target": "μ receptor", "conditions": "read-out: IC50 at μ receptor; selectivity of ML140"}}, "data": [{"compound": "Cc1ccc(S(=O)(=O)NCc2ccc(C(=O)NCCN(Cc3ccccc3)C(C)C)cc2)cc1", "note": "[ML140]", "values": [{"measurement": "IC50", "setting": "δ receptor", "result": "> 32", "unit": "µM"}, {"measurement": "IC50", "setting": "μ receptor", "result": "> 24", "unit": "µM"}]}]}
